Measured values taken from PubChem BioAssay AID687022 (Broad Institute, 2013).
Active and inactive are the calls of the source.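 The calls were made as follows: active = Fitted curve of melting temperature shift crosses the 1.0 threshold at or below the sample's highest valid tested concentration; inconclusive = Flat fit with activity 30 to 70, or invalid fit; inactive = Opposite direction, flat within 30, or no crossing.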

Target: Fibroblast growth factor 22 (Homo sapiens) (UniProt Q9HCT0)
Experiment: binders of human FGF22 protein, dose response, FGF22 synaptogenesis inhibitor project, biophysical, thermal shift, cherry-pick (AID 687022)
Conditions: recombinant FGF22 thermal shift, SYPRO orange melting

Chain of Fibroblast growth factor 22 (Homo sapiens) (Q9HCT0 whole entry, looked up): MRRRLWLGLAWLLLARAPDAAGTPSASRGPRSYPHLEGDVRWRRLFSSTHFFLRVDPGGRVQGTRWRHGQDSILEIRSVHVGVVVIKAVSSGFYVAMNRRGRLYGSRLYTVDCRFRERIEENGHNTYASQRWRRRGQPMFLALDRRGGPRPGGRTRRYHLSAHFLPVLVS

Structure (SMILES) | AbsAC1 (concentration giving Tm-shift threshold 1.0)
O=C(NCC[C@@H]1CC[C@@H](NC(=O)Nc2cc(F)ccc2F)[C@@H](CO)O1)Nc1ccc(F)cc1 | 18.1 µM
COc1ccc(NS(=O)(=O)c2cccc(C(=O)NNC(=O)c3ccccc3O)c2)cc1 | 10.4 µM
COc1ccccc1NS(=O)(=O)c1cc(C(=O)Nc2ccc(S(=O)(=O)Nc3onc(C)c3C)cc2)ccc1C | 4.31 µM
CCc1ccc(N2CC(C(=O)OCC(=O)Nc3ccc(C(C)=O)cc3)CC2=O)cc1 (configuration not stated) | 17.7 µM
COc1cccc(NC(=O)N(C)C[C@H]2Oc3cc(-c4ccccc4F)ccc3S(=O)(=O)N([C@H](C)CO)C[C@H]2C)c1 | 4.99 µM
C[C@H]1CN([C@@H](C)CO)S(=O)(=O)c2ccc(-c3ccncc3)cc2O[C@H]1CN(C)C(=O)Nc1ccc(C(F)(F)F)cc1 | 11.8 µM
COc1ccc(CN2C(=O)N(c3ccc(OC)cc3)C(=O)C2CC(=O)Nc2ccccc2)cc1 (configuration not stated) | 6.06 µM
O=C(N/N=C/c1c[nH]c2ccc(Br)cc12)C1CC1 | 7.7 µM
O=C(O)c1ccccc1NS(=O)(=O)c1ccc2ccccc2c1 | 4.33 µM
CSc1nc2nc(Cl)c(Cl)nc2[nH]1 | > 38 µM (inactive)
CCCC(=O)c1ccc(OCc2cn(CC(=O)c3ccc(O)cc3)nn2)cc1 | 8.45 µM
C/C(=N\NC(=O)c1nnn(-c2nonc2N)c1CSc1ccc(C)cc1)c1cccnc1 | 37.4 µM
COc1ccc(-c2nc(-c3ccc(O)cc3O)cs2)cc1OC | 5.56 µM
C[C@@H]1CN([C@@H](C)CO)S(=O)(=O)c2ccc(-c3cccc(C#N)c3)cc2O[C@@H]1CN(C)C(=O)Nc1cc(F)ccc1F | > 38 µM (inactive)
CNC(=S)N(Cc1ccc(OC)cc1)C1CC(=O)N(c2ccc(C(=O)OC)cc2)C1=O (configuration not stated) | 3.43 µM
CC(=O)Nc1ccc(NC(=O)Nc2ccccc2)cc1 | 2.14 µM

Structure (SMILES) | AbsAC1 (concentration giving Tm-shift threshold 1.0)
O=C(Nc1nc(-c2ccccn2)cs1)c1cccc(S(=O)(=O)N2CCOCC2)c1 | 9.23 µM
O=C(Nc1ccc(F)cc1)N[C@@H]1CC[C@H](CCn2cc(-c3ccc(F)cc3)nn2)O[C@H]1CO | 13 µM
O=C(CN1C(=O)NC2(CCOc3ccccc32)C1=O)Nc1ccc(Br)cc1F (configuration not stated) | 16.6 µM
COc1ccc2o/c(=N\O)c(C(=O)Nc3ccc(C)cc3)cc2c1 | 28 µM
NS(=O)(=O)c1ccc(NC(=O)Nc2cccc(Cl)c2)cc1 | 16.8 µM
COC12CC(=O)C(C(C)=O)=C(O)C1(C)c1c(O)c(C)c(O)c(C(C)=O)c1O2 (configuration not stated) | 6.77 µM
Nc1nonc1N/N=C\c1ccccc1 | 4.88 µM
CC(=O)c1ccc(NC(=O)Nc2cccnc2)cc1 | 7.05 µM
O=C(O)/C=C/c1cccc(NC(=O)Nc2ccc([N+](=O)[O-])cc2)c1 | 4.49 µM
CC1(C(=O)NS(=O)(=O)c2ccc(Cl)cc2)CCN1C(=O)Cc1ccc(Cl)cc1Cl (configuration not stated) | > 10 µM (inactive)
COc1cccc(NC(=O)N(C)C[C@H]2Oc3cc(-c4ccccc4F)ccc3S(=O)(=O)N([C@@H](C)CO)C[C@H]2C)c1 | 5.23 µM
C[C@H](CO)N1C[C@H](C)[C@H](CN(C)C(=O)Nc2ccc(C(F)(F)F)cc2)Oc2cc(-c3ccncc3)ccc2S1(=O)=O | 10.3 µM
Cc1cc(NC(=O)Nc2ccc3c(ccn3C)c2)sn1 | 3.42 µM
COc1cc(/C=C2/S/C(=N/S(=O)(=O)Cc3ccccc3)NC2=O)c([N+](=O)[O-])cc1OC | 3.72 µM
C[C@H](CO)N1C[C@H](C)[C@@H](CN(C)Cc2ccc(C(=O)O)cc2)Oc2cc(/C=C/c3ccccc3)ccc2S1(=O)=O | > 42 µM (inactive)
CCN1C(=O)C(CC(=O)Nc2ccc(OC)cc2)N(CCc2ccc(OC)cc2)C1=S (configuration not stated) | 6.95 µM
